Results from US20260053932A1, “COMPOUNDS AND METHODS FOR THE TARGETED DEGRADATION OF ANDROGEN RECEPTOR AND ASSOCIATED METHODS OF USE” (Arvinas Operations, Inc., priority 2020, published 2026).

Each compound was assayed on androgen receptor (AR) in LNCaP and/or VCaP cells (assay: Androgen Receptor ELISA assay (AR degradation)). Details: LNCaP and/or VCaP cells; 5 hours incubation; media with R1881; read-out: DC50 Code* (degradation of AR ELISA).
Format: cell-based
Procedure: Androgen Receptor ELISA Assay. […] The protocols used with VCaP cells are described below.
The cells were grown for a minimum of 3 days.
(2)(i) A 10× stock plate in media was made; (ii) 2.5 μL of the 1000× stock was transferred to a new 10× stock plate (use 12 channel pipet, start at A (DMSO control) work thru H. When 247.5 µL of media was added to this plate, it served as a 10× stock; (iii) made media+1 nM R1881 for making 10× stock plate; (iv) added 247.5 μL of media with 1 nM R1881 to each well of the 10× stock plate, mix.
Then 22 μL of 10× stock was added to cells and incubated for 5 hours. […] Media was aspirated, and 100 μL 1× cell lysis buffer/well was added. The cells were placed on a shaker located in a cold room for 10 minutes and shaken at speed 7. The lysate mixture was mix and 20 μL transferred to 100 μl of Diluent in ELISA plate (0.15 μg/ml-[…]). The lysate-diluent mixture was store at 4° C. overnight on a shaker located in a cold room at speed 5 (gentle swirl).
The lysate-diluent mixture was shaken for 30 minutes at 37° C. The mouse AR antibody, anti-mouse antibody, TMB, and STOP solution were allowed to come to room temperature. The 1×ELISA buffer included in kit was made and loaded in reservoir. Media from the plate was discarded, the ELISA plate was tapped hard on paper towel, and washed 4×200 μl ELISA wash buffer using a plate washer for the first three washes and an eight channel aspirator for the fourth wash to more thoroughly aspirate the solution.
Next, 100 μL/well of mouse AR detection Ab was added; the plate was covered and shaken at 37° C. for 1 hour; media was discarded from the plates, the plates tapped on a paper towel and washed four times with 200 μL ELISA wash buffer with a plate washer for the first three washes and an eight channel aspirator for the fourth wash; 100 μL/well of anti-mouse—HRP conjugated Ab (comes with the kit) was added; the plates was cover and shaken at 37° C. for 30 minutes; the TMB reagent was allowed to come to room temperature; the media from the plate was discarded, the plates tapped on paper towel, and washed four times with 200 μL ELISA wash buffer with a plate washer for the first three washes and an eight channel aspirator for the fourth wash; plates were tapped on paper towel; 100 μL TMB was added to each well and the plate shaken for 2 minutes—while watching color. STOP solution (100 μL) was added when light blue color developed.
Data was analyzed and plotted using GraphPad Prism software. Exemplary compounds of Tables 1A, 1B, and 1C were assayed and the data shown below in Tables 2A, 2B, and 2C. DC50 (nM) categories (degradation of AR ELISA in LNCaP and/or VCaP cells) of Tables 2A, 2B, and 2C are as follows: A<1 nM; 1≤B<10 nM; 10≤C<100 nM; D≥100 nM. Dmax (%) categories (degradation of AR ELISA in LNCaP and/or VCaP cells) of Table 2 are as follows: A≥70; 50≤B<70; C<50

DC50 [nM]	Structure (SMILES)
< 1	Cc1cc(O[C@H]2CC[C@H](NC(=O)c3cnc(N4CCC(CN(C(C)C)[C@H]5C[C@H](Oc6cc(F)c7c(c6)C(=O)N(C6CCC(=O)NC6=O)C7=O)C5)CC4)cn3)CC2)cc(C)c1C#N (stereo partly shown) [Compound 46, N-((1r,4r)-4-(4-cyano-3,5-dimethylphenoxy)cyclohexyl)-5-(4-((((1r,3r)-3-((2-(2,6-dioxopiperidin-3-yl)-7-fluoro-1,3-dioxoisoindolin-5-yl)oxy)cyclobutyl) (isopropyl)amino)methyl)piperidin-1-yl)pyrazine-2-carboxamide]
< 1	COc1cc(O[C@H]2C[C@H](N(CC3CCN(c4cnc(C(=O)N[C@H]5CC[C@H](Oc6cc(C)c(C#N)c(C)c6)CC5)cn4)CC3)C(C)=O)C2)cc2c1C(=O)N(C1CCC(=O)NC1=O)C2=O (stereo partly shown) [Compound 23, N-((1r,4r)-4-(4-cyano-3,5-dimethylphenoxy)cyclohexyl)-5-(4-((N-((1r,3r)-3-((2-(2,6-dioxopiperidin-3-yl)-7-methoxy-1,3-dioxoisoindolin-5-yl)oxy)cyclobutyl)acetamido)methyl)piperidin-1-yl)pyrazine-2-carboxamide]
> 100	COc1cc(O[C@H]2C[C@H](N(CC3CCN(c4ncc(C(=O)N[C@@H]5CC[C@@H](Oc6cc(C)c(C#N)c(C)c6)C5)cn4)CC3)C(C)C)C2)cc2c1C(=O)N(C1CCC(=O)NC1=O)C2=O (stereo partly drawn) [Compound 8, N-((1R,3R)-3-(4-cyano-3,5-dimethylphenoxy)cyclopentyl)-2-(4-((((1r,3R)-3-((2-(2,6-dioxopiperidin-3-yl)-7-methoxy-1,3-dioxoisoindolin-5-yl)oxy)cyclobutyl) (isopropyl)amino)methyl)piperidin-1-yl)pyrimidine-5-carboxamide]
< 1	COc1cc(O[C@H]2C[C@H](N(CC3CCN(c4cnc(C(=O)N[C@H]5CC[C@H](Oc6cc(C)c(C#N)c(C)c6)CC5)cn4)CC3)C(C)C)C2)cc2c1C(=O)N(C1CCC(=O)NC1=O)C2=O (stereo partly shown) [Compound 17, N-((1r,4r)-4-(4-cyano-3,5-dimethylphenoxy)cyclohexyl)-5-(4-((((1r,3r)-3-((2-(2,6-dioxopiperidin-3-yl)-7-methoxy-1,3-dioxoisoindolin-5-yl)oxy)cyclobutyl) (isopropyl)amino)methyl)piperidin-1-yl)pyrazine-2-carboxamide]
< 1	Cc1cc(O[C@H]2CC[C@H](NC(=O)c3cnc(N4CCC(CN(C(C)C)[C@H]5C[C@H](Oc6ccc7c(c6)C(=O)N(C6CCC(=O)NC6=O)C7=O)C5)CC4)cn3)CC2)cc(C)c1C#N (stereo partly shown) [Compound 25, N-((1r,4r)-4-(4-cyano-3,5-dimethylphenoxy)cyclohexyl)-5-(4-((((1r,3r)-3-((2-(2,6-dioxopiperidin-3-yl)-1,3-dioxoisoindolin-5-yl)oxy)cyclobutyl) (isopropyl)amino)methyl)piperidin-1-yl)pyrazine-2-carboxamide]

Same assay, conditions: degradation of AR ELISA in LNCaP and/or VCaP cells; Table 2C; read-out: DC50 Code*

DC50 [nM]	Structure (SMILES)
< 1	CC(C)N(CC1CC2(C1)CN(c1ncc(C(=O)N[C@H]3C(C)(C)[C@H](Oc4ccc(C#N)c(Cl)c4)C3(C)C)cn1)C2)[C@H]1C[C@H](Oc2ccc3c(c2)C(=O)N(C2CCC(=O)NC2=O)C3=O)C1 (stereo partly shown) [compound 87, N-((1r,3r)-3-(3-chloro-4-cyanophenoxy)-2,2,4,4-tetramethylcyclobutyl)-2-(6-((((1r,3r)-3-((2-(2,6-dioxopiperidin-3-yl)-1,3-dioxoisoindolin-5-yl)oxy)cyclobutyl) (isopropyl)amino)methyl)-2-azaspiro[3.3]heptan-2-yl)pyrimidine-5-carboxamide]
< 1	Cc1cc(O[C@H]2C(C)(C)[C@H](NC(=O)c3ccc(N4CCC(CN(C(C)C)[C@H]5C[C@H](Oc6ccc7c(c6)C(=O)N([C@@H]6CCC(=O)NC6=O)C7=O)C5)CC4)cc3)C2(C)C)cc(C)c1C#N [compound 160, N-((1r,3r)-3-(4-cyano-3,5-dimethylphenoxy)-2,2,4,4-tetramethylcyclobutyl)-4-(4-((((1R,3r)-3-((2-((R)-2,6-dioxopiperidin-3-yl)-1,3-dioxoisoindolin-5-yl)oxy)cyclobutyl) (isopropyl)amino)methyl)piperidin-1-yl)benzamide]
